Tests used:
[1] = Reducing power assay (reduction of Iron-III to Iron-II); type: biochemical
Method: The assay is based on the reduction of Iron-III to Iron-II. Results are expressed as % reduction when compared to the control which reduced all Iron-III at a concentration of 5 mg/mL.

[2] = Protection of lutein esters, milling/mixing method, 60° C. for 4 hours; type: physicochemical; conditions: mix method
Method: 300 mg lutein esters and 30 mg α-Tocopherol were added to a mortar, completely milled and maintained at a temperature of 60° C. for 4 hours. The lutein content was measured with the UV-Visible spectrophotometric method as described above. […] The lutein content was measured with a UV-Visible spectrophotometer as described above. 300 mg lutein esters and a predetermined amount of lipoic acid were placed in a mortar, milled and then subjected to an elevated temperature of 60° C. for 4 hours. The lutein content was determined by the UV-Visible spectrophotometric method described above.

[3] = Stability in CaCo-2 incubation medium (Free and Total LA/DHLA in medium); type: in vitro ADME; conditions: for Total LA in medium (after NaBH4 reduction) / Free LA in medium: 1 mg LA/ml or 1.46 mg LAORN/ml medium
Method: For stability investigations, the incubation medium was incubated at 37° C. for 1 hour. Thereafter, the medium was centrifuged and used for further analysis.

CaCo-2 cells = experiment: CACO-2 absorption test (Free and Total LA/DHLA in cells); type: in vitro ADME
[4] = Inhibition of the autooxidation of linoleic acid; type: biochemical; conditions: 50° C., up to 72 hours
Method: As a positive control (full inhibition) 10 mM butyl-hydroxytoluene (BHT)/L was introduced. Each sample was prepared in 3 replicates. […] Each sample was prepared in 3 replicates. Samples were incubated with light protection at 50° C.

| SMILES | % Reduction compared to Control ([1]; Conc. 1 mg/mL) [%] | % Reduction compared to Control ([1]; Conc. 5 mg/mL) [%] | % Reduction compared to Control ([1]; Conc. 10 mg/mL) [%] | Residual Ratio/% of lutein esters ([2]; 300 mg lutein esters, Dosage of LA 3 mg, Content of LA 1.0%) [%] | Residual Ratio/% of lutein esters ([2]; Dosage of LA 15 mg, Content of LA 4.8%) [%] | Residual Ratio/% of lutein esters ([2]; Dosage of LA 30 mg, Content of LA 9.1%) [%] | Residual Ratio/% of lutein esters ([2]; Dosage of LA 60 mg, Content of LA 16.7%) [%] | Residual Ratio/% of lutein esters ([2]; Dosage of LA 150 mg, Content of LA 33.3%) [%] | Residual Ratio/% of lutein esters ([2]; Dosage of LA 300 mg, Content of LA 50.0%) [%] | Total LA in medium (after NaBH4 reduction) ([3]; 60 min) | Free LA in medium ([3]; 60 min, 37° C.) [mg/mL] | Free LA in medium ([3]; Initial) [mg/mL] | Total LA in medium (after NaBH4 reduction) ([3]; Initial) | stability under the test assay conditions ([3]; incubation medium, 37° C., 1 hour, recovery after reduction to DHLA) | Total LA in cells (after NaBH4 reduction) (CaCo-2 cells; CaCo-2 cells incubated 30 min) | Total LA in cells (after NaBH4 reduction) (CaCo-2 cells; CaCo-2 cells incubated 60 min) | protection against autooxidation of linoleic acid ([4]; FIG. 7: 5 mM LA/L, 5 mM ORN/L, 5 mM LA/L + 5 mM ORN/L, 10 mM LAORN/L) | protection against autooxidation of linoleic acid ([4]; FIG. 8: 50 mM LA/L, 50 mM ORN/L, 50 mM LA/L + 50 mM ORN/L, 100 mM LAORN/L) |
| --- | --- | --- | --- | --- | --- | --- | --- | --- | --- | --- | --- | --- | --- | --- | --- | --- | --- | --- |
| [BH4-].[Na+] [Control, NaBH4] | 22.7 | 100.0 | 100.0 | – | – | – | – | – | – | – | – | – | – | – | – | – | – | – |
| O=C(O)CCCCC1CCSS1 (stereo not drawn) [LA, 1,2-dithiolane-3-pentanoic acid] | 7.2 | 22.2 | 24.7 | 42.7 | 46.5 | 79.5 | 80.1 | 79.4 | 82.4 | bld | 0.74 | 0.89 | bld | stable | bld | bld | full protection | full protection |
